Experimental data published in ChEMBL document CHEMBL1201862, “PubChem BioAssay data set” (2004).
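Growth conditions: 96-well plates. Treatment: test compound, 48 hours, 5 concentrations. Analysis: linear interpolation between bracketing concentrations; unreached endpoints set to highest concentration. At the GI50, growth is halved.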 Active and inactive are the calls of the source. Rule as the data show it: active = GI50 up to about 1.1 µM and inactive = higher.

How the values were obtained:
Test in all cases: inhibition of tumour cell growth, NCI panel, 48 h
[1] = test system: BT-549
[2] = test system: DU-145
[3] = test system: MDA-MB-231
[4] = test system: MDA-MB-435
[5] = test system: MDA-N
[6] = test system: T47D
[7] = test system: Hs-578T
[8] = test system: RXF 631

Measured: GI50

COC(=O)C1=C(OC(=O)/C(=C/c2ccc(Cl)cc2)c2ccc(Cl)cc2)C(C(=O)OC)[C@]2(O)[C@@H](C(=O)OC)[C@H]1C[C@@H](c1ccccc1)[C@@H]2C(=O)OC (stereo partly drawn)
inactive: [1] 90.4 µM | [2] > 100 µM | [3] 50.6 µM | [4] > 100 µM | [5] > 100 µM | [6] > 100 µM

O=C1C=CC[C@H]2O[C@@H](COC(=O)Cc3ccccc3)C[C@H]2O1
inactive: [2] 88.9 µM | [7] 26.2 µM | [3] 63.7 µM | [4] 40.5 µM | [5] 41 µM | [6] 58.1 µM

O=C1c2cccc3c2C(=O)c2c(cccc21)OCCOCCOCCOCCO3
inactive: [8] 91.6 µM
